Activity calls are given as the source filed them. No cut-off for these calls is given here.
Assays:
[1] = species: Homo sapiens; test: Selectivity index, ratio of IC50 for inhibition of human CDC7 in presence of 1 mM ATP without preincubation to IC50 for inhibition of human CDC7 using FITC-labelled MCM2 substrate preincubated for 30 mins followed by substrate addition and measured after 5 hrs in presence of 1 mM ATP
[2] = Inhibition of human CDC7/ASK using FITC-labelled MCM2 substrate preincubated for 30 mins followed by substrate addition and measured after 5 hrs in presence of 1 mM of ATP
[3] = Tmax in mouse at 10 mg/kg, po; type: ADME, organism-based; conditions: in vivo
[4] = Inhibition of human CDC7/ASK using FITC-labelled MCM2 substrate in presence of 1 mM of ATP
[5] = target: T1, Cell division cycle 7-related protein kinase (Homo sapiens, UniProt O00311); test: Inhibition of CDC7 in human COLO205 cells assessed as reduction in MCM2 phosphorylation at S53 residue at 0.1 uM incubated for 48 hrs by Western blot analysis relative to control; type: cell-based; conditions: COLO 205
Target sequence in this assay (O00311 whole entry, looked up): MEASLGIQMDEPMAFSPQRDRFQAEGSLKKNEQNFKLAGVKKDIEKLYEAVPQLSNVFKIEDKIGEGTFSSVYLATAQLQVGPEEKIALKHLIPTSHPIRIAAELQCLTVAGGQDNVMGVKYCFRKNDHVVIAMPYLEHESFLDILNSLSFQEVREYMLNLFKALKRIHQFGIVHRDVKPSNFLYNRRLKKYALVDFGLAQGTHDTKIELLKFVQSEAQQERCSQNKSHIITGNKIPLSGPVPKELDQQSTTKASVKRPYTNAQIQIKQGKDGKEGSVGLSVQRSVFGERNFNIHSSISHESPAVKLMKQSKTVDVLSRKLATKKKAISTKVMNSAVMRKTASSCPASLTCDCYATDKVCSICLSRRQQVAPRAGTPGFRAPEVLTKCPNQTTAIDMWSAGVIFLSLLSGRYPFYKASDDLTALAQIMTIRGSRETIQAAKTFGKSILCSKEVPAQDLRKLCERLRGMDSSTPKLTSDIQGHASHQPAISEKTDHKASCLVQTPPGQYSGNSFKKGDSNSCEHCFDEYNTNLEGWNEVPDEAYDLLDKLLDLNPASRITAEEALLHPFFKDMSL

[6] = Cmax in mouse at 10 mg/kg, po; type: ADME, organism-based; design: route oral, dose 10 mg/kg; conditions: in vivo
[7] = Volume of distribution in rat at 2 mg/kg, iv; type: ADME, organism-based; conditions: in vivo
[8] = Protein binding in human plasma assessed as unbound fraction; type: ADME, cell-free
[9] = AUC(0 to infinity) in rat at 10 mg/kg, po; type: ADME, organism-based; design: time infinity, route oral, dose 10 mg/kg; conditions: in vivo
[10] = MRT in mouse at 1 mg/kg, iv; type: ADME, organism-based; conditions: in vivo
[11] = tested on: SW-620; test: Induction of apoptosis in human SW-620 cells assessed as increase in gamma-H2AX level incubated for 48 hrs by Western blot analysis; type: functional, cell-based; conditions: dose 0.03-1 µM
[12] = Cmax in dog at 1 mg/kg, iv; type: ADME, organism-based, Canis lupus familiaris; design: route intravenous, dose 1 mg/kg; conditions: in vivo
[13] = Cmax in rat at 2 mg/kg, iv; type: ADME, organism-based; design: route intravenous, dose 2 mg/kg; conditions: in vivo
[14] = target: T2, Dual specificity protein kinase CLK2 (Homo sapiens, UniProt P49760); test: Inhibition of CLK2 (unknown origin) at 0.1 uM in presence of 1 mM ATP relative to control
Target sequence in this assay (P49760 whole entry, looked up): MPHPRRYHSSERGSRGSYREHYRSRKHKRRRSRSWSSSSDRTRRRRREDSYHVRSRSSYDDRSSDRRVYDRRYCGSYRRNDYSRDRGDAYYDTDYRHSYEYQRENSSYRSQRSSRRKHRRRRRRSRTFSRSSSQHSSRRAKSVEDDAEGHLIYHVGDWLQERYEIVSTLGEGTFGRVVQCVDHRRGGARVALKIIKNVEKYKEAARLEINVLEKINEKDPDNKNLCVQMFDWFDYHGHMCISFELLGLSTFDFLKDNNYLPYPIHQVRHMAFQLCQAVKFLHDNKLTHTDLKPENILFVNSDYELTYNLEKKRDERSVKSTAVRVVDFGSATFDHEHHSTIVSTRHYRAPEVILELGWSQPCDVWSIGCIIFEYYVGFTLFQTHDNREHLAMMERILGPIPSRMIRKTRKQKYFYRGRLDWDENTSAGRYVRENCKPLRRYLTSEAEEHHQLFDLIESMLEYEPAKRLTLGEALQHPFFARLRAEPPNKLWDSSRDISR

[15] = target: T3, Serine/threonine-protein kinase pim-1 (Homo sapiens, UniProt P11309); test: Inhibition of PIM1 (unknown origin) at 0.1 uM in presence of 1 mM ATP relative to control
Target sequence in this assay (P11309 whole entry, looked up): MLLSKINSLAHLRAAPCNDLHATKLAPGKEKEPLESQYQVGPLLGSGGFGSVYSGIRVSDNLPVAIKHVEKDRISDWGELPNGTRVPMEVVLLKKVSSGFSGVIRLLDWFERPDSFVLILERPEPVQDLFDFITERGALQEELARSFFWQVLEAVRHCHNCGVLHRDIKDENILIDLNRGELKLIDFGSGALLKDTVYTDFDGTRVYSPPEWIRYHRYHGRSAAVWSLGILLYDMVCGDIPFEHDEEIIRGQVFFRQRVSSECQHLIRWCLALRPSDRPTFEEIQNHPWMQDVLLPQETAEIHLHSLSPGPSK

[16] = Half life in rat at 10 mg/kg, po; type: ADME, organism-based; conditions: in vivo
[17] = AUC(0 to infinity) in dog at 1 mg/kg, iv; type: ADME, organism-based, Canis lupus familiaris; design: route intravenous, time infinity, dose 1 mg/kg; conditions: in vivo
[18] = Inhibition of human CDC7/ASK using FITC-labelled MCM2 substrate in presence of 5 uM of ATP
[19] = Metabolic stability in dog liver microsomes assessed as parent compound remaining after 30 mins; type: ADME, Canis lupus familiaris, Microsome; conditions: read-out: Stability
[20] = Clearance in mouse at 1 mg/kg, iv; type: ADME, organism-based; conditions: in vivo
[21] = target: T2, Dual specificity protein kinase CLK2; test: Inhibition of CLK2 (unknown origin) in presence of 1 mM ATP without preincubation
Target sequence in this assay (P49760 whole entry): as the sequence (P49760 whole entry, looked up) above

[22] = species: Homo sapiens; test: Selectivity index, ratio of IC50 for GSK3alpha (unknown origin) in presence of 1 mM ATP without preincubation to IC50 for GSK3alpha (unknown origin) in presence of 1 mM ATP with preincubation
[23] = Metabolic stability in human liver microsomes assessed as parent compound remaining after 30 mins; type: ADME, Microsome; conditions: liver microsomes, read-out: Stability
[24] = target: T1, Cell division cycle 7-related protein kinase; test: Inhibition of CDC7 in human SW-620 cells assessed as reduction in phosphorylation of MCM2 at Ser40 residue incubated for 48 hrs by Western blot analysis; type: cell-based
[25] = target: T3, Serine/threonine-protein kinase pim-1; test: Inhibition of PIM1 (unknown origin) in presence of 1 mM ATP with preincubation
Target sequence in this assay (P11309 whole entry): as the sequence (P11309 whole entry, looked up) above

[26] = Clearance in rat at 2 mg/kg, iv; type: ADME, organism-based; conditions: in vivo
[27] = Oral bioavailability in rat at 10 mg/kg; type: ADME, organism-based; conditions: in vivo
[28] = MRT in dog at 1 mg/kg, iv; type: ADME, organism-based, Canis lupus familiaris; conditions: in vivo
[29] = species: Homo sapiens; test: Selectivity index, ratio of IC50 for PIM1 (unknown origin) in presence of 1 mM ATP without preincubation to IC50 for PIM1 (unknown origin) in presence of 1 mM ATP with preincubation
[30] = Volume of distribution in mouse at 1 mg/kg, iv; type: ADME, organism-based; conditions: in vivo
[31] = Oral bioavailability in mouse at 10 mg/kg; type: ADME, organism-based; conditions: in vivo
[32] = AUC(0 to infinity) in dog at 2 mg/kg, po; type: ADME, organism-based, Canis lupus familiaris; design: route oral, time infinity, dose 2 mg/kg; conditions: in vivo
[33] = Tmax in rat at 10 mg/kg, po; type: ADME, organism-based; conditions: in vivo
[34] = target: T3, Serine/threonine-protein kinase pim-1; test: Inhibition of PIM1 (unknown origin) in presence of 1 mM ATP without preincubation
Target sequence in this assay (P11309 whole entry): as the sequence (P11309 whole entry, looked up) above

[35] = tested on: SW-620; test: Antitumor activity against human SW-620 cells xenografted in BALB/c nude mouse assessed as tumor growth inhibition at 120 mg/kg, po administered daily for 21 days; type: functional; conditions: SW-620, po, 504 h, time 21 day, read-out: TGI
[36] = target: T4, Glycogen synthase kinase-3 alpha (Homo sapiens, UniProt P49840); test: Inhibition of GSK3alpha (unknown origin) in presence of 1 mM ATP without preincubation
Target sequence in this assay (P49840 whole entry): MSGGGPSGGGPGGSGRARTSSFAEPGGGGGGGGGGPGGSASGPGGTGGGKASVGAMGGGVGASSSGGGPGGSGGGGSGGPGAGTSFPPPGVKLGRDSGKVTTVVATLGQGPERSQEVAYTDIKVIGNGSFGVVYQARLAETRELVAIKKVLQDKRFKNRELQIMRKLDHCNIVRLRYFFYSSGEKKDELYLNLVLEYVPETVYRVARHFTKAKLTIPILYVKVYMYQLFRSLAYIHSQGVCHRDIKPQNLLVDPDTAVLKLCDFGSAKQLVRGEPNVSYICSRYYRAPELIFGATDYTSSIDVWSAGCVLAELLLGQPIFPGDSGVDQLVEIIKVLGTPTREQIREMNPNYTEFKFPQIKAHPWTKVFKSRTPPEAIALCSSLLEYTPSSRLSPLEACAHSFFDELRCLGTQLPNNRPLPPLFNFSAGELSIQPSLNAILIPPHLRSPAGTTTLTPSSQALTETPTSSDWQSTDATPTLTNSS

[37] = tested on: COLO 205; test: Induction of cell cycle arrest in human COLO205 cells assessed as accumulation of cells at sub-G1 phase at 1 uM incubated for 48 hrs by propidium iodide staining based flow cytometry analysis; type: functional
[38] = Cmax in mouse at 1 mg/kg, iv; type: ADME, organism-based; design: route intravenous, dose 1 mg/kg; conditions: in vivo
[39] = In vivo inhibition of CDC7 in human SW-620 cells xenografted in BALB/c nude mouse assessed as reduction in phosphorylation of MCM2 at Ser53 residue at 120 mg/kg, po measured after 24 hrs; type: functional; conditions: SW-620, po
[40] = Half life in mouse at 1 mg/kg, iv; type: ADME, organism-based; conditions: in vivo
[41] = Volume of distribution in dog at 1 mg/kg, iv; type: ADME, organism-based, Canis lupus familiaris; conditions: in vivo
[42] = AUC(0 to infinity) in rat at 2 mg/kg, iv; type: ADME, organism-based; design: route intravenous, time infinity, dose 2 mg/kg; conditions: in vivo
[43] = species: Homo sapiens; test: Selectivity index, ratio of IC50 for CLK2 (unknown origin) in presence of 1 mM ATP without preincubation to IC50 for CLK2 (unknown origin) in presence of 1 mM ATP with preincubation
[44] = target: Dual specificity protein kinase CLK1 (Homo sapiens, UniProt P49759); test: Inhibition of CLK1 (unknown origin) in presence of 1 mM ATP with preincubation
Chain of Dual specificity protein kinase CLK1 (P49759 whole entry): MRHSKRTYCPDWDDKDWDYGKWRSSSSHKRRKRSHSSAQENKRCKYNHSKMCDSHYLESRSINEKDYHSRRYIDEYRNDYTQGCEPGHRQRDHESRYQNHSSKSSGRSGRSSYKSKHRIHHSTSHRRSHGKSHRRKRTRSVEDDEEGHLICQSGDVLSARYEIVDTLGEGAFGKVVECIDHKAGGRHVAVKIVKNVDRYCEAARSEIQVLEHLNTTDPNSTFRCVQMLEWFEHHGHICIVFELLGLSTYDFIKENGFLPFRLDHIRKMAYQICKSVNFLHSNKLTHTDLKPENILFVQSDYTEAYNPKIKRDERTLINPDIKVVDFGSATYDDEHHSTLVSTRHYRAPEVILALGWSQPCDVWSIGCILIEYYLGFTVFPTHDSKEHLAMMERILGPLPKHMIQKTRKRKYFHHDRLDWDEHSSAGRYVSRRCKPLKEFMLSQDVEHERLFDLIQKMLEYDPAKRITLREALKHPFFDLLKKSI

[45] = target: T1, Cell division cycle 7-related protein kinase; test: Inhibition of CDC7 in human SW-620 cells assessed as reduction in phosphorylation of MCM2 at Ser41 residue at 0.03 to 1 uM incubated for 48 hrs by Western blot analysis; type: cell-based; conditions: dose 0.03-1 µM
Target sequence in this assay (O00311 whole entry, looked up): as the sequence (O00311 whole entry, looked up) above

[46] = Half life in dog at 1 mg/kg, iv; type: ADME, organism-based, Canis lupus familiaris; conditions: in vivo
[47] = Tmax in dog at 2 mg/kg, po; type: ADME, organism-based, Canis lupus familiaris; conditions: in vivo
[48] = AUC(0 to infinity) in mouse at 10 mg/kg, po; type: ADME, organism-based; design: time infinity, route oral, dose 10 mg/kg; conditions: in vivo
[49] = Cmax in rat at 10 mg/kg, po; type: ADME, organism-based; design: route oral, dose 10 mg/kg; conditions: in vivo
[50] = target: T4, Glycogen synthase kinase-3 alpha; test: Inhibition of GSK3alpha (unknown origin) at 0.1 uM in presence of 1 mM ATP relative to control
Target sequence in this assay (P49840 2-483 limits assumed): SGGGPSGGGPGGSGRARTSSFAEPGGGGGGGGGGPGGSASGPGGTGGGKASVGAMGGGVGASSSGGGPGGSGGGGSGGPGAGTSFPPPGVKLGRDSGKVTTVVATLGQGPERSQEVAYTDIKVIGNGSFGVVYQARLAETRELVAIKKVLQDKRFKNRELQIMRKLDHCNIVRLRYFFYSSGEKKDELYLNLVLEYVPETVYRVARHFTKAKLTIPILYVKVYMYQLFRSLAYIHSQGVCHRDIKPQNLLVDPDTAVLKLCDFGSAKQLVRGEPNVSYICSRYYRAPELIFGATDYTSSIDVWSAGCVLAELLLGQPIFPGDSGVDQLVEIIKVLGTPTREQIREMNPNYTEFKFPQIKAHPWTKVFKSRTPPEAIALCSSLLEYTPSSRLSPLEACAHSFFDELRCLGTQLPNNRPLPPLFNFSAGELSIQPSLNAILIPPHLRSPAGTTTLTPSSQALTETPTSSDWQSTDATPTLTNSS

- Ratio IC50 [1]: 210
- IC50 [2]: 2.4 nM
- Tmax [3]: 4.98 min
- IC50 [4]: 503 nM
- inhibition [5]: 100%
- Cmax [6]: 285 ng/mL
- Vd [7]: 3.24 L/kg
- fraction unbound [8]: 0.088
- AUC(0-inf) [9]: 2410 ng·h/mL
- MRT [10]: 18 min
- Cmax [12]: 298 ng/mL
- Cmax [13]: 1210 ng/mL
- inhibition [14]: > 30%
- inhibition [15]: > 30%
- half-life [16]: 366 min
- AUC(0-inf) [17]: 1250 ng·h/mL
- IC50 [18]: 8.2 nM
- remaining at 0.5 h [19]: 81%
- clearance [20]: 112 mL/min/kg
- IC50 [21]: 270 nM
- Ratio IC50 [22]: 0.8
- remaining at 0.5 h [23]: 89%
- IC50 [24]: 36 nM
- inhibition ([24]; dose 0.03-1 µM): Dose-Dependent Effect
- IC50 [25]: 34 nM
- clearance [26]: 37.7 mL/min/kg
- bioavailability [27]: 54.4%
- MRT [28]: 5.26 h
- Ratio IC50 [29]: 0.9
- Vd [30]: 3.1 L/kg
- bioavailability [31]: 30.6%
- AUC(0-inf) [32]: 834 ng·h/mL
- Tmax [33]: 1 h
- IC50 [34]: 30 nM
- IC50 [36]: 189 nM
- Cmax [38]: 408 ng/mL
- half-life [40]: 19.2 min
- Vd [41]: 4.22 L/kg
- AUC(0-inf) [42]: 887 ng·h/mL
- Ratio IC50 [43]: 1.2
- IC50 [44]: 206 nM
- inhibition [45]: inactive
- half-life [46]: 288 min
- Tmax [47]: 2.67 h
- AUC(0-inf) [48]: 454 ng·h/mL
- Cmax [49]: 426 ng/mL
- inhibition [50]: > 30%
Structure (SMILES): CCOC(=O)C1=C(NN2CCN(CC(F)(F)F)CC2)O/C(=C\c2c[nH]c3ncccc23)C1=O [MONZOSERTIB]
- Activity [11]: Dose-Dependent Effect
- inhibition in vivo at 120 mg/kg [35]: 88%
- Activity [37]: 51%
- inhibition in vivo at 120 mg/kg [39]: 36%

From ChEMBL document CHEMBL4828769, “Discovery of AS-0141, a Potent and Selective Inhibitor of CDC7 Kinase for the Treatment of Solid Cancers” (J Med Chem, 2021)
